± gives the expanded uncertainty stated by the source.
Assay: molar heat capacity at saturation pressure

NC12CC3CC(CC(C3)C1)C2 [tricyclo(3.3.1.1:3,7)decan-1-amine]
Conditions	molar heat capacity [J/K/mol]
269.16 K, Crystal 2	252.76 ± 4.8
271.09 K, Crystal 2	258.66 ± 4.9
273 K, Crystal 2	272.05 ± 5.2
274.91 K, Crystal 2	282.28 ± 5.3
276.81 K, Crystal 2	299.57 ± 5.6
278.68 K, Crystal 2	329.42 ± 6.1
280.53 K, Crystal 2	365.67 ± 6.7
282.42 K, Crystal 2	373.74 ± 8.6
288.85 K, Crystal 1, Small (less than 1 g) adiabatic calorimetry	291.09 ± 4.9
293.37 K, Crystal 1, Small (less than 1 g) adiabatic calorimetry	265.9 ± 1.2
295.36 K, Crystal 1, Small (less than 1 g) adiabatic calorimetry	265.81 ± 1.2
297.3 K, Crystal 1, Small (less than 1 g) adiabatic calorimetry	265.98 ± 1.2
299.23 K, Crystal 1, Small (less than 1 g) adiabatic calorimetry	266.56 ± 1.2
301.17 K, Crystal 1, Small (less than 1 g) adiabatic calorimetry	266.89 ± 1.2
303.1 K, Crystal 1, Small (less than 1 g) adiabatic calorimetry	267.48 ± 1.2
305.04 K, Crystal 1, Small (less than 1 g) adiabatic calorimetry	267.89 ± 1.2
306.98 K, Crystal 1, Small (less than 1 g) adiabatic calorimetry	268.56 ± 1.2
308.92 K, Crystal 1, Small (less than 1 g) adiabatic calorimetry	268.89 ± 1.2
309.23 K, Crystal 1, Small (less than 1 g) adiabatic calorimetry	268.97 ± 1.2
310.85 K, Crystal 1, Small (less than 1 g) adiabatic calorimetry	268.89 ± 1.2
311.41 K, Crystal 1, Small (less than 1 g) adiabatic calorimetry	269.47 ± 1.2
312.79 K, Crystal 1, Small (less than 1 g) adiabatic calorimetry	269.39 ± 1.2
313.59 K, Crystal 1, Small (less than 1 g) adiabatic calorimetry	269.97 ± 1.2
314.73 K, Crystal 1, Small (less than 1 g) adiabatic calorimetry	269.97 ± 1.2
315.77 K, Crystal 1, Small (less than 1 g) adiabatic calorimetry	270.14 ± 1.2
316.67 K, Crystal 1, Small (less than 1 g) adiabatic calorimetry	270.05 ± 1.2
317.96 K, Crystal 1, Small (less than 1 g) adiabatic calorimetry	270.55 ± 1.2
318.61 K, Crystal 1, Small (less than 1 g) adiabatic calorimetry	270.8 ± 1.2
320.14 K, Crystal 1, Small (less than 1 g) adiabatic calorimetry	270.97 ± 1.2
320.55 K, Crystal 1, Small (less than 1 g) adiabatic calorimetry	271.05 ± 1.2
322.32 K, Crystal 1, Small (less than 1 g) adiabatic calorimetry	271.47 ± 1.2
324.44 K, Crystal 1, Small (less than 1 g) adiabatic calorimetry	271.8 ± 1.2
324.5 K, Crystal 1, Small (less than 1 g) adiabatic calorimetry	272.13 ± 1.3
326.39 K, Crystal 1, Small (less than 1 g) adiabatic calorimetry	272.55 ± 1.3
326.7 K, Crystal 1, Small (less than 1 g) adiabatic calorimetry	272.05 ± 1.3
328.33 K, Crystal 1, Small (less than 1 g) adiabatic calorimetry	272.71 ± 1.3
328.88 K, Crystal 1, Small (less than 1 g) adiabatic calorimetry	272.88 ± 1.3
330.27 K, Crystal 1, Small (less than 1 g) adiabatic calorimetry	273.05 ± 1.3
331.06 K, Crystal 1, Small (less than 1 g) adiabatic calorimetry	273.71 ± 1.3
332.22 K, Crystal 1, Small (less than 1 g) adiabatic calorimetry	273.55 ± 1.3
333.25 K, Crystal 1, Small (less than 1 g) adiabatic calorimetry	273.88 ± 1.3
334.16 K, Crystal 1, Small (less than 1 g) adiabatic calorimetry	273.8 ± 1.3
335.43 K, Crystal 1, Small (less than 1 g) adiabatic calorimetry	274.38 ± 1.3
336.11 K, Crystal 1, Small (less than 1 g) adiabatic calorimetry	274.21 ± 1.3
337.62 K, Crystal 1, Small (less than 1 g) adiabatic calorimetry	274.79 ± 1.3
338.05 K, Crystal 1, Small (less than 1 g) adiabatic calorimetry	274.88 ± 1.3
339.81 K, Crystal 1, Small (less than 1 g) adiabatic calorimetry	275.29 ± 1.3
340 K, Crystal 1, Small (less than 1 g) adiabatic calorimetry	275.21 ± 1.3
341.94 K, Crystal 1, Small (less than 1 g) adiabatic calorimetry	275.79 ± 1.3
342 K, Crystal 1, Small (less than 1 g) adiabatic calorimetry	275.96 ± 1.3
343.89 K, Crystal 1, Small (less than 1 g) adiabatic calorimetry	276.54 ± 1.3
344.18 K, Crystal 1, Small (less than 1 g) adiabatic calorimetry	276.79 ± 1.3
345.84 K, Crystal 1, Small (less than 1 g) adiabatic calorimetry	277.2 ± 1.3
346.37 K, Crystal 1, Small (less than 1 g) adiabatic calorimetry	277.45 ± 1.3
347.78 K, Crystal 1, Small (less than 1 g) adiabatic calorimetry	277.79 ± 1.3
348.56 K, Crystal 1, Small (less than 1 g) adiabatic calorimetry	278.2 ± 1.3
349.73 K, Crystal 1, Small (less than 1 g) adiabatic calorimetry	278.37 ± 1.3
350.75 K, Crystal 1, Small (less than 1 g) adiabatic calorimetry	279.03 ± 1.3
351.68 K, Crystal 1, Small (less than 1 g) adiabatic calorimetry	278.87 ± 1.3
352.94 K, Crystal 1, Small (less than 1 g) adiabatic calorimetry	279.78 ± 1.3
353.63 K, Crystal 1, Small (less than 1 g) adiabatic calorimetry	279.37 ± 1.3
355.12 K, Crystal 1, Small (less than 1 g) adiabatic calorimetry	280.28 ± 1.3
355.58 K, Crystal 1, Small (less than 1 g) adiabatic calorimetry	280.45 ± 1.3
357.31 K, Crystal 1, Small (less than 1 g) adiabatic calorimetry	281.03 ± 1.3
357.53 K, Crystal 1, Small (less than 1 g) adiabatic calorimetry	281.03 ± 1.3
359.47 K, Crystal 1, Small (less than 1 g) adiabatic calorimetry	281.86 ± 1.3
359.5 K, Crystal 1, Small (less than 1 g) adiabatic calorimetry	282.03 ± 1.3
361.42 K, Crystal 1, Small (less than 1 g) adiabatic calorimetry	282.61 ± 1.3
361.71 K, Crystal 1, Small (less than 1 g) adiabatic calorimetry	282.53 ± 1.3
363.37 K, Crystal 1, Small (less than 1 g) adiabatic calorimetry	283.36 ± 1.3
363.9 K, Crystal 1, Small (less than 1 g) adiabatic calorimetry	283.52 ± 1.3
365.32 K, Crystal 1, Small (less than 1 g) adiabatic calorimetry	284.52 ± 1.3
366.08 K, Crystal 1, Small (less than 1 g) adiabatic calorimetry	284.69 ± 1.3
367.27 K, Crystal 1, Small (less than 1 g) adiabatic calorimetry	285.52 ± 1.3
